Laboratory results from patent US20210147932A1, “FLUORESCENT PROBES FOR QUANTIFICATION OF DNA DAMAGE AND REPAIR” (The Board of Trustees of the Leland Stanford Junior …, priority 2019, published 2021).
Entries after “also recorded” stand apart in the source; their conditions may differ.

Key:
[1] = Off-target light-up with small-molecule carbonyl species; settings: 5 μM CCVJ1, 500 μM carbonyl species, 37° C.
Method: FIG. 13 provides fluorescence response of 5 μM Compound (1) (CCVJ1) with 500 μM of various biologically relevant carbonyl species after 1 h incubation in buffer at 37° C. […] (Ex. 485, Em. 538)
(§1) Since the probe design involves conformational restriction to induce a light-up signal, it was hypothesized that off-target oxime formation with small molecules might induce a relatively small signal relative to DNA, thus providing a measure of selectivity in signaling. […] Another potential aspect is that ketones or aldehydes in the environment might compete with the DNA AP site to react with the aminooxy group, thereby consuming the free probe and reducing the maximum signal. Initial testing of the reactivity of CCVJ1 with AP site-containing DNA in the presence of increasing amounts of competing 2-deoxyribose, the closest small-molecule analogue to the DNA AP site. […] This was repeated this experiment with pyruvic acid, a highly reactive ketone and a common cellular metabolite.

[2] = test system: DNA AP site (AP site containing DNA, oligo 15); experiment: Fluorescence response of probe covalently attached to the AP site of a DNA hairpin; type: biochemical
Method: FIG. 2B provides emission spectra of oligonucleotide-probe conjugates compared to the emission spectra of the free probe at 2 μM concentration in 50 mM Tris buffer pH 7.0. Excitation was at 470 nm for Compound (1) (also referred to herein as CCVJ1) and 450 nm for Compounds 8 and 9 (also referred to herein as NP1 and NP2) and Compounds 4 and 6 (also referred to herein as BD1 and BD2).
To assess the potential fluorescence response of each probe, a 17mer DNA hairpin containing a single AP site was prepared and reacted it with a 10-fold excess of probe overnight. The subsequent DNA-probe conjugates were precipitated to remove excess fluorophore and full DNA labelling was confirmed by MALDI-TOF mass spectrometry (Table 1). The reacted DNAs were re-suspended in buffer to a concentration of 2 μM and the emission spectra compared with the spectra of the free probes in solution. […] In addition to its large fluorescence response, CCVJ1 is accessed readily through a facile 4-step synthesis and has good spectral overlap with fluorescein. This makes the probe accessible to a wide range of researchers and well suited to the majority of fluorescence-based instruments.
In addition to the 5′ and 3′ neighboring bases, studies were done of the effect of the orphaned base Z paired opposite the abasic site on the UBER probe system (FIG. 10, panels C-D). Using the sequence where X=C and Y=G, the identity was varied of the base Z opposite the AP site. […] As a result, the smaller pyrimidine bases yielded a greater fluorescence light up response than the larger purine bases. It was also observed a strong effect by the opposing base on the rate of oxime formation (FIG. 10, panel D). […] This trend is in contrast to the neighboring base effect discussed above in which stronger stacking bases accelerated the rate of oxime formation.
General procedure for creating AP site DNA: A deoxyuridine containing oligonucleotide (typically 5-20 μM) was treated with 10 U/mL E. coli UDG (New England Biolabs) for 10 minutes at 37° C. in buffer to create AP site containing DNA (see below for MALDI-TOF confirmation). The hairpin was then reacted with probe from a DMSO stock solution (final DMSO concentration <5%).
Procedure for assessing fluorescence response of probes: To assess the fluorescence response of the probes, 25 μM AP site containing DNA (oligo 15) was prepared in a 20 μL solution and allowed to react with 500 μM of each probe overnight. The DNA was then precipitated by the addition of 80 μL 0.33 M sodium acetate and 300 μL ethanol and centrifuged at 21,100 g for 1 hr at 4° C. The resulting DNA pellet was washed twice with 70% EtOH and re-suspended in buffer to a concentration of 2 μM. A portion of the DNA pellet was used for MALDI-TOF analysis. The emission spectra of the probe-oligonucleotide conjugate was measured and compared against a 2 μM solution of the free probe

AP site-containing DNA = experiment: Competition for oxime formation between CCVJ1 and AP site-containing DNA; type: biochemical
Method: FIG. 6 provides effect of adding exemplary linker NH2CH2CH2ONH2 to the reaction of Compound (1) (CCVJ1) (5 μM) with AP site containing DNA (20 μM) in buffer.
(§2) FIG. 9 provides interaction between Compound (1) (CCVJ1) and DNA. […] (Ex. 485, Em. 538).
FIG. 14 provides effect of competing aldehydes/ketones on maximum fluorescence signal.
Additional experiments were performed to study the origins of this unusually rapid reaction. […] To test the effect that proximity between the alkoxyamine and planar portion of the probe had on oxime kinetics in our probes, probes were synthesized having variable-length linkers (CCVJ2 and CCVJ3) from aldehyde reactive linkers L2 and L3 respectively (FIG. 2A). […] To test the importance of a double-stranded DNA structure to the rate and fluorescence response, an AP-containing single-stranded DNA oligonucleotide was reacted with CCVJ1. At pH 7, CCVJ1 reacted with a second-order rate constant of 33 M^−1s^−1 with the single-stranded substrate, roughly 5-fold slower than a double-stranded hairpin with identical sequence context (FIG. 8).
(§3) To further explore the hypothesis that the oxime rate acceleration in these AP-site DNAs was related to base stacking interactions, the fluorescence was measured of CCVJ1 in the presence and absence of a non-lesion containing DNA hairpin.
as §1

[3] = test system: DNA hairpin containing a tetrahydrofuran spacer (pseudo AP site); experiment: Fluorescence of probe with pseudo AP site DNA hairpin (non-covalent); type: binding
Method: as §2, §3

## N#C/C(=C\c1cc2c3c(c1)CCCN3CCC2)C(=O)NCCON [CCVJ1]
[1]
  light-up response with small-molecule ketones and aldehydes: absence of any fluorescence response; also recorded: none of them generated a significant light-up response
[2]; 17mer hairpin conjugate 2 μM vs free probe
  increase in fluorescence when bound to the AP site vs free probe: 256 fold
[2]; AP hairpin X=C, Y=G, Z=C
  overall increase in fluorescence relative to the probe alone, optimal neighboring bases: 508 fold
[2]; relative to the unbound probe
  fluorescence light up response (summary): 250-500 fold
AP site-containing DNA; 20 μM pseudo AP hairpin, 20 μM AP DNA, 5 μM CCVJ1
  effect of equimolar pseudo AP DNA on rate of apparent oxime formation: no effect on the rate of apparent oxime formation
AP site-containing DNA; 1 mM deoxyribose (200 equivalents)
  effect of competing 2-deoxyribose on maximum signal: no effect on the maximum signal
AP site-containing DNA; 4 mM deoxyribose (800 equivalents)
  signal retained compared to the AP DNA alone: 85%
AP site-containing DNA; up to 200 μM pyruvate (40 equivalents)
  effect of competing pyruvate on overall signal: no significant reduction in overall signal
[3]
  fluorescence with pseudo AP hairpin, higher than with undamaged DNA: ~4 fold
[3]; 5 μM probe, 20 μM DNA
  increase in fluorescence with pseudo AP hairpin over the free probe: ~10 fold
